Experimental data published in ChEMBL document CHEMBL1201862, “PubChem BioAssay data set” (2004).
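Following 48 hours of exposure in 96-well plates, responses at five concentrations were used to interpolate endpoints linearly. GI50 is the concentration that inhibits growth by half.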 The source made the active and inactive calls. Rule as the data show it: active = GI50 up to about 1.1 µM and inactive = higher.

Tests used:
Assay in all cases: NCI tumour cell line growth inhibition, 48 h
[1] = tested on: LXFL 529
[2] = tested on: KM-20L2
[3] = tested on: DMS-114
[4] = tested on: RXF 631
[5] = tested on: M19-MEL
[6] = tested on: DMS-273
[7] = tested on: HOP-18
[8] = tested on: XF498
[9] = tested on: DLD-1

Measured: GI50

CNC(=O)/C(=C/c1ccc(OC)cc1)c1cc(OC)c(OC)c(OC)c1
inactive: [1] 4.43 µM | [2] 1.28 µM | [3] 2.3 µM | [4] 7.45 µM | [5] 1.74 µM | [7] > 71.1 µM | [8] 4.95 µM | [9] 2.25 µM
active: [6] 0.516 µM

COc1ccc(C2=Nc3ccccc3N=C(SC)C2)cc1
inactive: [1] 46.1 µM | [2] 41.3 µM | [3] 44.1 µM | [4] 47 µM | [5] 39.8 µM | [6] 73.6 µM | [7] > 100 µM | [8] 37.8 µM | [9] 42.8 µM

C/C(CC(=O)Nc1ccc([N+](=O)[O-])cc1)=N\Nc1ccc([N+](=O)[O-])cc1[N+](=O)[O-]
inactive: [1] 20.9 µM | [2] 32.8 µM | [3] 48.5 µM | [4] > 100 µM | [5] > 100 µM | [6] 18.5 µM | [8] 86.7 µM | [9] 39.4 µM

C[C@]12CCC(=O)C(O)=C1CC[C@@H]1C2CC[C@]2(C)Nc3c(cnn3-c3ccccc3)CC12 (some centres undefined)
inactive: [1] 42.6 µM | [2] 56.5 µM | [4] 29.9 µM | [5] > 100 µM | [6] 56.4 µM | [8] > 100 µM | [9] > 100 µM

O=c1[nH]c(=O)n(C2OC(CO)C(O)C2O)cc1OCc1ccccc1 (centres undefined)
inactive: [1] > 80.4 µM | [2] > 81.7 µM | [3] > 57.9 µM | [4] > 100 µM | [5] > 95.5 µM | [6] > 75.9 µM | [7] > 100 µM | [8] > 100 µM | [9] > 59.8 µM

c1ccc2c(c1)CCCc1cc3ccccc3nc1-2
inactive: [1] > 100 µM | [2] > 100 µM | [3] 26.9 µM | [5] > 100 µM | [7] > 100 µM | [8] 53.3 µM | [9] > 100 µM

Brc1cccc(/C=N/C23CC4CC(CC(C4)C2)C3)c1
inactive: [1] > 100 µM | [2] > 100 µM | [3] > 100 µM | [5] > 100 µM | [6] > 100 µM | [7] > 100 µM | [8] > 100 µM | [9] > 100 µM

CC(=O)C1C(c2ccccc2)C2(C)OC(=O)C(C#N)C12C (centres undefined)
inactive: [1] > 100 µM | [2] > 100 µM | [3] > 100 µM | [5] > 100 µM | [6] > 100 µM | [7] > 100 µM | [8] > 100 µM | [9] > 100 µM

O=C(NCCO)c1ccc([N+](=O)[O-])cc1
inactive: [1] > 100 µM | [2] > 100 µM | [3] > 100 µM | [4] > 100 µM | [5] > 100 µM | [6] > 100 µM | [8] > 100 µM | [9] > 100 µM

O=CC1CCC=CC1NC(=O)OCc1ccccc1 (centres undefined)
inactive: [1] 44.5 µM | [3] 22.7 µM | [5] 41.8 µM | [6] 27.9 µM | [7] > 100 µM | [8] 44.2 µM | [9] 27.2 µM

O=C1Nc2ccccc2N/C1=C\C(=O)c1ccccc1O
inactive: [1] > 100 µM | [2] > 100 µM | [3] > 100 µM | [5] > 100 µM | [6] > 100 µM | [7] > 100 µM | [9] > 100 µM

COCC(=O)OC1CCn2c1nc1c2C(=O)C(C)=C(NC(C)=O)C1=O (centres undefined)
inactive: [1] 3.35 µM | [2] 20.4 µM | [3] 1.82 µM | [5] 11.7 µM | [6] 17.5 µM | [7] 27.9 µM | [8] 4.41 µM | [9] 12.9 µM

Cn1cnc2nc(Cl)nc(NC(C)(C)C(C)(C)O)c21
inactive: [2] > 100 µM | [3] > 100 µM | [6] > 100 µM | [7] > 100 µM | [8] > 100 µM | [9] > 100 µM

CC(=O)Nc1ccc(S(=O)(=O)N/N=C/CN2C(=O)c3ccccc3C2=O)cc1
inactive: [1] > 100 µM | [2] > 100 µM | [3] > 100 µM | [5] > 100 µM | [6] > 100 µM | [8] > 100 µM | [9] > 100 µM

O=c1c2cccc3cccc(c4oc5c6cccc7cccc(c(=O)c5c14)c76)c32
inactive: [1] 11.1 µM | [2] 15.4 µM | [3] 12.5 µM | [4] 11.4 µM | [5] 12 µM | [6] 12.8 µM | [7] 14.6 µM | [9] 15.1 µM

Cc1cc(N(CCC#N)CCC#N)ccc1/C=C(\NC(=O)/C=C/c1ccccc1)NC(=O)Nc1ccccc1C
inactive: [1] 47.6 µM | [2] > 100 µM | [3] 89.7 µM | [4] 84.1 µM | [5] > 100 µM | [6] > 100 µM | [8] > 10 µM | [9] 78.3 µM

CCCCCCCCC(O)C#CC(N)=O (centres undefined)
inactive: [1] 11.2 µM | [2] 15.6 µM | [3] 3.34 µM | [4] 11.7 µM | [5] 11.8 µM | [6] 7.28 µM | [7] 12.6 µM | [8] 17.1 µM | [9] 10.2 µM

CC(C)=CC1C[C@H](C2CC=C3C2(C)CCC2[C@@]3(C)C(=O)CC3[C@]2(C)C=CC(=O)[C@]3(C)CO)CO1 (some centres undefined)
inactive: [1] 3.45 µM | [2] 5.42 µM | [3] 4.23 µM | [5] 3.85 µM | [6] 5.66 µM | [7] 11 µM | [8] 4.93 µM

O=C1NC2(CCCCCC2)C2CCCCCCC12O (centres undefined)
inactive: [1] > 100 µM | [3] > 100 µM | [5] > 100 µM | [6] > 100 µM | [7] > 100 µM | [8] > 100 µM | [9] > 100 µM

CC(=O)SC(SC(C)=O)SC(C)=O
inactive: [1] 51.8 µM | [2] > 100 µM | [3] 31.1 µM | [4] > 100 µM | [5] > 100 µM | [6] > 100 µM | [7] > 100 µM | [9] > 100 µM

CCC(=C(c1ccc(OCc2ccccc2)cc1)c1ccc(OCc2ccccc2)cc1)c1ccc(OC)cc1
inactive: [1] > 100 µM | [2] > 100 µM | [3] > 100 µM | [5] > 100 µM | [6] > 100 µM | [8] > 100 µM | [9] > 100 µM

COc1cc2c(cc1OC)CC(=O)Nc1cc(OC)c(OC)cc1CC2
inactive: [1] > 73.3 µM | [2] 48.4 µM | [3] 24.3 µM | [4] > 75.9 µM | [5] 31.8 µM | [6] 24.8 µM | [7] > 100 µM | [8] > 100 µM | [9] 40.3 µM

Cc1ccc(-c2cc(=O)c3cc(C)c(C)c(C(=O)O)c3o2)cc1N
inactive: [1] > 100 µM | [2] > 100 µM | [3] > 100 µM | [4] > 100 µM | [5] > 100 µM | [7] > 100 µM | [8] > 100 µM | [9] > 100 µM

CCOC(=O)C(C(=O)OCC)=C1C=C(c2ccccc2)c2ccccc21
inactive: [1] 53.2 µM | [2] 31.6 µM | [3] 54.6 µM | [5] 52.5 µM | [6] 51.5 µM | [8] 70.5 µM | [9] 10.7 µM

CCN(CC)CCN1CCc2c([nH]c3ccccc23)C1c1cccnc1 (centres undefined)
inactive: [1] > 100 µM | [2] > 100 µM | [3] > 100 µM | [5] > 100 µM | [6] > 100 µM | [7] > 100 µM | [8] > 100 µM | [9] > 100 µM

COc1ccc(CN[C@H]2CCc3cc(OC)c(OC)c(OC)c3-c3ccc(SC)c(=O)cc32)c(OC)c1OC
inactive: [7] 58.3 µM
active: [1] 0.0447 µM | [2] 0.0185 µM | [3] 0.019 µM | [5] 0.0338 µM | [6] 0.0267 µM | [8] 0.0308 µM | [9] 0.0327 µM

Cc1c(Cl)cccc1NC(=O)C(=O)C1C(=O)CC(C)(C)CC1=O
inactive: [1] > 100 µM | [2] > 100 µM | [3] > 100 µM | [4] > 100 µM | [5] > 100 µM | [6] > 100 µM | [7] > 100 µM | [9] > 100 µM

Cc1cc2c(=O)c3ccccc3[nH]c2c(C(=O)O)c1C
inactive: [1] > 100 µM | [2] > 100 µM | [3] > 100 µM | [5] > 100 µM | [6] > 100 µM | [8] > 100 µM | [9] > 100 µM

COc1ccc(O)cc1C(O)c1ccccc1 (centres undefined)
inactive: [1] > 100 µM | [2] > 100 µM | [5] > 100 µM | [6] > 100 µM | [7] > 100 µM | [8] > 100 µM | [9] > 100 µM
